target: human GPR120 (Homo sapiens (Human), UniProt Q5NUL3); test: FLIPR assay: intracellular calcium in CHO cells expressing human GPR120; type: cell-based; settings: FLIPR calcium assay, CHO cells expressing human GPR120, agonist action
Description: All compounds were tested under the FLIPR assay unless otherwise indicated.
Primers were synthesized in the domains on the opposite sides of the base sequences of the ORFs of the known GPCR and GPR120 in GenBank Accession NOs. […] The base sequences of the primers used are described below. The restriction enzymes, BamHI and EcoRI, recognition sites were introduced for subcloning, respectively.
As samples for PCR, human small intestine Marathon-ready cDNA (CLONTECH, current corporate name: TaKaRa) and cDMA obtained by reverse transcription of mouse BAT-derived RNA were used for human and mouse GPR120 receptor genes, respectively.
Using KOD Plus (TOYOBO) for PCR, 30 cycles of 94° C. for 2 minutes, 94° C. for 15 seconds, 55° C. for 30 seconds and 68° C. for 1 minute were carried out to effect reaction, followed by addition of 0.5 units of ExTaq (TaKaRa) and incubation at 72° C. for 10 minutes to carry out A-addition reaction to terminals. For mouse PCR, 35 cycles were carried out on the condition of a final DMSO concentration of 2%.
Cloning of amplified PCR products was carried out using pCR2.1-TOPO TA cloning kit (Invitrogen). For verification of base sequences, electrophoresis was carried out using BigDye Terminator Cycle Sequencing Ready Reaction Kit Ver.
The GPR120 receptor genes cloned into pCR2.1-TOPO vectors, into which the restriction enzymes, BamHI and EcoRI, recognition sites were introduced, were excised from the vectors by the enzymes and subcloned into the BamHI and EcoRI recognition sites of eukaryotic expression vector EF1/V5-His B (Invitrogen).
Test 2: Production of Expression Cells
Using Lipofectamine 2000 (Invitrogen), cDNA of GPR120 receptor was transfected into CHO/NFAT-BLA cells, and drug-resistant cells were isolated to obtain GPR120 stable expression strains. The GPR120-expressed CHO cells were cultured in DMEM/F12 medium containing 10% fetal bovine serum, 100 units/ml penicillin, 0.1 mg/ml streptomycin sulfate, 250 μg/ml Zeocin, 500 μg/mL Geneticin and 15 mM HEPES.
Test 3: Measurement of Intracellular Calcium Concentration
To the cells was added the test compound diluted with HBSS solution containing 20 mM HEPES and 2.5 mM probenecid. Variations in the intracellular calcium concentration were measured by Fluorescence Imaging Plate Reader (FLIPR; Molecular Devices) to examine the agonist action, and EC50 values were calculated. […]

human GPR120, sequence (Q5NUL3 whole entry): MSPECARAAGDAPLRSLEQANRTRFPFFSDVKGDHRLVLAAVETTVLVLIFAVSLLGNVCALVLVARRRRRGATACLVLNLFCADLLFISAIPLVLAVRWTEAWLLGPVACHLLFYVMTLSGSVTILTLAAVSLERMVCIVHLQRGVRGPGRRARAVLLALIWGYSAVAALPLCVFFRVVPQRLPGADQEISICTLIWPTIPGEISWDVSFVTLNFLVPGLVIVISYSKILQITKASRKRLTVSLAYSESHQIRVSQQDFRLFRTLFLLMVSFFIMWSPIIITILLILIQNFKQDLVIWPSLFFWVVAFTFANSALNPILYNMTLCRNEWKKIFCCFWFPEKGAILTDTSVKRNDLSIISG

SMILES | EC50 [nM]
O=C(O)CC1COC2(CCN(c3cc(OC(F)(F)F)ccc3F)CC2)C1 (racemic) [Example 94, 2-(8-(2-fluoro-5-(trifluoromethoxy)phenyl)-1-oxa-8-azaspiro[4.5]decan-3-yl)acetic acid] | 1480
CC1CC(CC(=O)O)CCC12CCN(c1cc(OC(F)(F)F)ccc1Cl)CC2 (single isomer, unassigned) [Example 89b, 2-(3-(2-Chloro-5-(trifluoromethoxy)phenyl)-7-methyl-3-azaspiro[5.5]undecan-9-yl)acetic acid] | 3130
N#Cc1cc(SC(F)(F)F)cc(N2CCC3(CCC(CC(=O)O)CC3)CC2)c1 [Example 25] | 1150
O=C(O)CC1CCC2(CC1)CCN(c1cc(C(F)(F)F)ccc1C(F)(F)F)CC2 [Example 21] | 3270
N#Cc1cc(OC(F)(F)F)cc(N2CCC3(CCC(CC(=O)O)CC3)CC2)c1 [Example 51] | 617
O=C(O)CCCC1CCC2(CC1)CCN(c1cc(OC(F)(F)F)ccc1Cl)CC2 [Example 86] | 2020
O=C(O)CCCC1CCC2(CC1)CCN(c1cc(OC3CCC3)ccc1F)CC2 [Example 83, 4-(3-(5-Cyclobutoxy-2-fluorophenyl)-3-azaspiro[5.5]undecan-9-yl)butanoic acid] | 791
O=C(O)CC1CCC2(CC1)CCN(c1cc(C(F)(F)F)ccn1)CC2 [Example 33] | 3060
O=C(O)CCC1CCC2(CC1)CCN(c1cc(OC3CCC3)ccc1Cl)CC2 [Example 84] | 1350
O=C(O)CC1CCC2(CCN(c3cccc(OC(F)(F)F)c3)CC2)OC1 (stereo not shown) [Example 95] | 1900
O=C(O)CCC1CCC2(CC1)CCN(c1cc(OC(F)(F)F)ccc1Cl)CC2 [Example 85] | 1790
COc1cc(Cl)cc(N2CCC3(CC2)CC(CC(=O)O)CO3)c1 (stereo not shown) [Example 102] | 8100
O=C(O)CC1CCC2(CC1)CCN(c1cc(C(F)F)cc(C(F)F)c1)CC2 [Example 22] | 3010
CC1CC(CC(=O)O)CCC12CCN(c1cc(OC(F)(F)F)ccc1Cl)CC2 (single isomer, unassigned) [Example 89a, 2-(3-(2-Chloro-5-(trifluoromethoxy)phenyl)-7-methyl-3-azaspiro[5.5]undecan-9-yl)acetic acid] | 2760
O=C(O)CC1CCC2(CCN(c3cc(OC(F)(F)F)ccc3Cl)CC2)OC1 (stereo not shown) [Example 97] | 1290
O=C(O)CC1CCC2(CC1)CCN(c1cc(OC(F)(F)F)cc(C(F)(F)F)c1)CC2 [Example 59] | 1490
CSc1nc(N2CCC3(CCC(CC(=O)O)CC3)CC2)cc(C(F)(F)F)n1 [Example 26] | 8300
O=C(O)CC1CCC2(CC1)CCN(c1cc(OC3CCCC3)ccc1Cl)CC2 [Example 5, 2-(3-(2-chloro-5-(cyclopentyloxy)phenyl)-3-azaspiro[5.5]undecan-9-yl)acetic acid] | 1100
CSc1ccc(OC(F)(F)F)cc1N1CCC2(CCC(CC(=O)O)CC2)CC1 [Example 41] | 1690
O=C(O)C[C@@H]1CCC2(CCN(c3cc(OC(F)(F)F)ccc3F)CC2)OC1 (single isomer, unassigned) [Example 93a, (R) or (S) 2-(9-(2-fluoro-5-(trifluoromethoxy)phenyl)-1-oxa-9-azaspiro[5.5]undecan-3-yl)acetic acid] | 1300
CC(C)Oc1cc(OC(F)(F)F)cc(N2CCC3(CCC(CC(=O)O)CC3)CC2)c1 [Example 56] | 1220
O=C(O)CC1CCC2(CCN(c3cc(OC(F)(F)F)ccc3Cl)CC2)OC1 (single isomer, unassigned) [Example 91B, (S)-2-(9-(2-chloro-5-(trifluoromethoxy)phenyl)-1-oxa-9-azaspiro[5.5]undecan-3-yl)acetic acid or (R)-2-(9-(2-chloro-5-(trifluoromethoxy)phenyl)-1-oxa-9-azaspiro[5.5]undecan-3-yl)acetic acid] | 1020
O=C(O)C[C@@H]1CCC2(CCN(c3cc(OC4CCC4)ccc3F)CC2)OC1 [Example 100] | 4280
O=C(O)CC1CCC2(CC1)CCN(c1ccc(-c3ccccc3)cc1)CC2 [Example 77] | 4940
CC(C(=O)O)C1CCC2(CC1)CCN(c1cc(OC(F)(F)F)ccc1Cl)CC2 (stereo not shown) [Example 3, 2-(3-(2-chloro-5-(trifluoromethoxy)phenyl)-3-azaspiro[5.5]undecan-9-yl)propanoic acid] | 3400
O=C(O)CC1CCC2(CC1)CCN(c1cc(C(F)(F)F)cc(C(F)(F)F)c1)CC2 [Example 32] | 2150
O=C(O)C[C@@H]1CCC2(CCN(c3cc(OC4CCC4)ccc3Cl)CC2)OC1 [Example 98] | 1530
N#Cc1ccc(OC2CCC2)cc1N1CCC2(CCC(CC(=O)O)CC2)CC1 [Example 57] | 1330

More lines, now with the values ahead:

EC50 [nM] | SMILES
1660 | CCC(=O)c1ccc(F)c(N2CCC3(CCC(CC(=O)O)CC3)CC2)c1 [Example 20]
2860 | Cc1cc(F)cc(N2CCC3(CCC(CC(=O)O)CC3)CC2)c1Cl [Example 68]
2940 | CN(C)c1cccc(N2CCC3(CCC(CC(=O)O)CC3)CC2)c1 [Example 69]
878 | O=C(O)CC1CCC2(CC1)CCN(c1cc(Cl)cc(Cl)c1)CC2 [Example 30]
2400 | COc1cccc(N2CCC3(CCC(CC(=O)O)CC3)CC2)c1 [Example 64]
377 | Cc1cc(OC(F)(F)F)cc(N2CCC3(CCC(CC(=O)O)CC3)CC2)c1 [Example 48]
2580 | CCc1cc(CC)cc(N2CCC3(CCC(CC(=O)O)CC3)CC2)c1 [Example 44]
1550 | CC(C)Oc1cc(F)cc(N2CCC3(CCC(CC(=O)O)CC3)CC2)c1 [Example 60]
3170 | O=C(O)CC1CCC2(CC1)CCN(c1cc(C(F)(F)F)ccc1CO)CC2 [Example 73]
330 | O=C(O)CC1CCC2(CC1)CCN(c1cc(OC3CCC3)ccc1Cl)CC2 [Example 47]
3630 | COCCOc1cc(Cl)cc(N2CCC3(CCC(CC(=O)O)CC3)CC2)c1 [Example 75]
671 | Cc1cc(N2CCC3(CCC(CC(=O)O)CC3)CC2)cc(C(F)(F)F)c1 [Example 34]
2150 | O=C(O)CC1CCC2(CC1)CCN(c1cc(F)cc(Cl)c1F)CC2 [Example 38]
1220 | O=C(O)CC1CCC2(CC1)CCN(c1cc(F)cc(C(F)(F)F)c1)CC2 [Example 31]
749 | Cc1ccc(C(F)(F)F)cc1N1CCC2(CCC(CC(=O)O)CC2)CC1 [Example 42]
1790 | O=C(O)CC1CCC2(CC1)CCN(c1cc(F)cc(Cl)c1)CC2 [Example 29]
2990 | O=C(O)CC1CCC2(CC1)CCN(c1cc(C(F)F)cc(C(F)F)n1)CC2 [Example 27]
2950 | Cc1cccc(N2CCC3(CCC(CC(=O)O)CC3)CC2)c1 [Example 70]

EC50 [nM] | SMILES
2170 | Cc1cc(F)c(Cl)c(N2CCC3(CCC(CC(=O)O)CC3)CC2)c1 [Example 37]
3420 | COc1cc(N2CCC3(CCC(CC(=O)O)CC3)CC2)c(F)cn1 [Example 74]
3040 | Cc1cc(F)cc(N2CCC3(CCC(CC(=O)O)CC3)CC2)c1 [Example 28]
1170 | Cc1cc(Cl)cc(N2CCC3(CCC(CC(=O)O)CC3)CC2)c1 [Example 45]
2140 | Cc1ccc(C#N)c(N2CCC3(CCC(CC(=O)O)CC3)CC2)c1 [Example 13]
948 | Cc1cc(C)cc(N2CCC3(CCC(CC(=O)O)CC3)CC2)c1 [Example 19]
652 | O=C(O)CC1CCC2(CC1)CCN(c1cc(C(F)(F)F)ccc1F)CC2 [Example 16]
641 | CC(C)Oc1cc(Cl)cc(N2CCC3(CCC(CC(=O)O)CC3)CC2)c1 [Example 52]
667 | CSc1cc(N2CCC3(CCC(CC(=O)O)CC3)CC2)cc(C(F)(F)F)c1 [Example 53]
2360 | N#Cc1ccc(F)cc1N1CCC2(CCC(CC(=O)O)CC2)CC1 [Example 17]
3460 | CC(C)c1cc(C#N)cc(N2CCC3(CCC(CC(=O)O)CC3)CC2)c1 [Example 24]
2520 | Cc1cc(C)c(Cl)c(N2CCC3(CCC(CC(=O)O)CC3)CC2)c1 [Example 43]
1960 | O=C(O)CC1CCC2(CC1)CCN(c1cc(OC(F)F)ccc1Cl)CC2 [Example 61]
1800 | O=C(O)CC1CCC2(CC1)CCN(c1cc(Cl)cc(F)c1F)CC2 [Example 39]
2360 | COc1ccc(C(F)(F)F)cc1N1CCC2(CCC(CC(=O)O)CC2)CC1 [Example 15]
2500 | Cc1ccc(C#N)cc1N1CCC2(CCC(CC(=O)O)CC2)CC1 [Example 65]
2420 | O=C(O)CC1CCC2(CC1)CCN(c1cc(F)ccc1C(F)F)CC2 [Example 12]

same assay, conditions: at 8300 nM; 100% activation defined by reference compound of U.S. Pat. No. 8,367,708

SMILES | Human GPR120 % activation [%]
CSc1nc(N2CCC3(CCC(CC(=O)O)CC3)CC2)cc(C(F)(F)F)n1 [Example 26] | 62

— patent publication US9708270B2, “Substituted spiropiperidinyl compounds useful as GPR120 agonists” (Merck Sharp & Dohme Corp., priority 2012, dated 2017)
